Source: US11723907B2, “Anti-aging compounds” (THE CLEVELAND CLINIC FOUNDATION, priority 2017, dated 2023)

Key:
[1] = tested on: cytochrome c; experiment: Enzymatic NAD(P)H oxidation / cytochrome c reduction catalyzed by N2N1; assay type: biochemical
Experimental: FIGS. 5A-5C provide graphs and schemes relating to the N2N1 mechanism of action. […] No specific substrate was added into reaction mix, therefore, it was concluded that reaction was driven by slow reduction of molecular oxygen dissolved into reaction buffer. The hypothetical reaction equation is shown below reaction plots. (B) The proposed molecular mechanism of possible substrate reduction catalyzed by N2N1. (C) Addition of peroxide or cytochrome c into reaction allowed us to identify cytochrome c as the most preferable substrate for the N2N1 driven enzymatic reaction. […] It was interesting to notice that addition of cytochrome c to non-enzymatic reaction reduced the reaction rate. […] The hypothetical reaction equation is show below the reaction plots.
FIGS. 6A-6B provide graphs showing the enzymatic reduction of cytochrome C catalyzed by N2N1 can utilize both NADH and NADPH. (A) The enzymatic electrons transfer from NADH to cytochrome c driven by N2N1 was monitored by decrease in absorption at 340 nm (NADH) and increase in absorption at 550 nm (cytochrome c). The absorbance spectrum was screened at the end of the reaction (˜1 hour). The hypothetical reaction equation is shown below the reaction plots. (B) The enzymatic electrons transfer from NADPH to cytochrome c driven by N2N1 was monitored by decrease in absorption at 340 nm (NADPH) and increase in absorption at 550 nm (cytochrome c). The hypothetical reaction equation is shown below the reaction plots.
To evaluate possible participation of mitochondrial NADH oxidoreductases, in particular Complex I and III, the […] was run in the presence of rotenone or antimycin A (2 μM). The acquired data allowed us to specify the most probable candidate that carry out the transfer electrons from NAD(P)H to cytochrome C driven by N2N1. The NQO1 protein would be the most likely candidate, while proteins from CYB5 family still cannot be ruled out.
Bonkowski et al., Nature reviews. Molecular cell biology 17, 679-690 (2016); Orr et al., Antioxidants & redox signaling 19, 788-803 (2013). It quite possible, that NAD(P)H oxidation catalyzed by N2N1 is performed by NADH:cytochrome b5 reductases (CYB5 . . . ) or NAD(P)H:quinone oxidoreductase (NQO1) reductase (FIG. 3C). The inventors found by RNA-seq analysis that fourteen genes from CYB5 family were expressed in normal fibroblast. NQO1 was also detected at the high level of expression. These reductases connect aerobic metabolism with aging by directed electron flow from NAD(P)H to oxygen, cytochrome C, and peroxide. Jimenez-Hidalgo et al., Aging cell 8, 140-151 (2009). […]

[2] = tested on: global protein disulfide bonds; experiment: Global protein disulfide bonds (Elman's reagent, biotin-switch assay); assay type: cell-based; conditions: Elman's reagent or biotin-switch assay
Source text: FIGS. 3A-3C provide graphs and schemes showing the preliminary data that directed the plan to find the mechanism of action of identified anti-aging compounds. (A) Substantial decrease in oxidized sulfhydryl groups were detected after several days of treatment with VA. […] The inventors decided to check if VA can participate in catalytic reactions performed by the enzymes involved in generation of reductive potential or its utilization by transferring the electrons to oxidized disulfide bonds t. […] In particular, catalytic reduction of molecular oxygen and cytochrome c was observed. Therefore, the inventors decided to take into account the most prominent enzymes that were noted to be involved into initiation or prevention aging-like traits.
Based on results obtained on tissue cultured cells (increased RLS) and an increase in the numbers of HSC surrogate cells (LTC-IC or CFU), the inventors set their future goal to develop a novel pharmacological treatment for AA patients and potentially for other BMF. […] The only persistent effect of VA was considerable reduction in global protein disulfide bonds (up to 30%) detected by Elman's reagent or direct labelling of reduced sulfhydryl groups with biotin-switch assay (FIG. 3A). […]

[3] = tested on: erythropoietin-dependent UT7 cells; experiment: Growth of erythropoietin-dependent UT7 cells; assay type: cell-based

SMILES	catalysis of enzymatic NADH and NADPH conversion ([1]; 1 μM)	time to complete reduction of cytochrome c ([1]; 0.5 mM cytochrome c, NADH or NADPH)	reduction in global protein disulfide bonds [2]	growth support [3]
O=C1/C(=N/O)C=Cc2ccccc21 [N2N1, 1-naphthoquinone-2-monoxime]	actively catalyze	10 to 15 min		
O=C1NC(=O)C(=NO)C(=O)N1 [VA, 2,4,5,6(1H,3H)-pyrimidine-tetrone 5-oxime]			up to 30%	does not support the growth
